Assay results reported in PubChem BioAssay (NCI).
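At the GI50, growth is halved. At the TGI there is no net growth.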

How the values were obtained:
Assay in all cases: NCI anticancer screen, dose series, 384-well format
M14 melanoma = tested on: M14 melanoma
HT29 colon = tested on: HT29 colon
OVCAR-3 ovarian = tested on: OVCAR-3 ovarian
SF-268 CNS = tested on: SF-268 CNS
SF-295 CNS = tested on: SF-295 CNS
SK-OV-3 ovarian = tested on: SK-OV-3 ovarian
A549 NSCLC = tested on: A549 NSCLC
TK-10 renal = tested on: TK-10 renal
RPMI-8226 leukemia = tested on: RPMI-8226 leukemia
MDA-MB-435 melanoma = tested on: MDA-MB-435 melanoma
T-47D breast = tested on: T-47D breast
HCT-15 colon = tested on: HCT-15 colon
ACHN renal = tested on: ACHN renal
NCI-H522 lung = tested on: NCI-H522 lung
SK-MEL-5 melanoma = tested on: SK-MEL-5 melanoma
NCI/ADR-RES ovarian = tested on: NCI/ADR-RES ovarian
SR leukemia = tested on: SR leukemia
NCI-H322M lung = tested on: NCI-H322M lung
KM12 colon = tested on: KM12 colon
NCI-H23 lung = tested on: NCI-H23 lung
UACC-62 melanoma = tested on: UACC-62 melanoma
SNB-75 CNS = tested on: SNB-75 CNS
HOP-62 NSCLC = tested on: HOP-62 NSCLC
MALME-3M melanoma = tested on: MALME-3M melanoma
RXF 393 renal = tested on: RXF 393 renal
U251 glioblastoma = tested on: U251 glioblastoma
BT-549 breast = tested on: BT-549 breast
MCF7 breast = tested on: MCF7 breast
PC-3 prostate = tested on: PC-3 prostate
A498 renal = tested on: A498 renal
CAKI-1 renal = tested on: CAKI-1 renal
HS 578T breast = tested on: HS 578T breast
SK-MEL-28 melanoma = tested on: SK-MEL-28 melanoma
MDA-MB-468 breast = tested on: MDA-MB-468 breast
OVCAR-4 ovarian = tested on: OVCAR-4 ovarian
CCRF-CEM leukemia = tested on: CCRF-CEM leukemia
HCT-116 colon = tested on: HCT-116 colon
EKVX NSCLC = tested on: EKVX NSCLC
SK-MEL-2 melanoma = tested on: SK-MEL-2 melanoma
SW-620 colon = tested on: SW-620 colon
MDA-MB-231 breast = tested on: MDA-MB-231 breast
NCI-H460 NSCLC = tested on: NCI-H460 NSCLC
UACC-257 melanoma = tested on: UACC-257 melanoma
786-0 renal = tested on: 786-0 renal
DU-145 prostate = tested on: DU-145 prostate
OVCAR-5 ovarian = tested on: OVCAR-5 ovarian
SF-539 CNS = tested on: SF-539 CNS
K-562 leukemia = tested on: K-562 leukemia
HL-60(TB) leukemia = tested on: HL-60(TB) leukemia
MOLT-4 leukemia = tested on: MOLT-4 leukemia
UO-31 renal = tested on: UO-31 renal
IGROV1 ovarian = tested on: IGROV1 ovarian
COLO 205 colon = tested on: COLO 205 colon
NCI-H226 lung = tested on: NCI-H226 lung
SN12C renal = tested on: SN12C renal
HOP-92 NSCLC = tested on: HOP-92 NSCLC
LOX IMVI melanoma = tested on: LOX IMVI melanoma
SNB-19 CNS = tested on: SNB-19 CNS

NC(=O)c1ccc2nc(-c3ccc(Oc4ccc(Cl)cc4)cc3)[nH]c2c1
GI50 (M14 melanoma): 20.2 µM
TGI (M14 melanoma): 50.3 µM
GI50 (HT29 colon): 10.5 µM
TGI (HT29 colon): 24.1 µM
GI50 (OVCAR-3 ovarian): 12.1 µM
TGI (OVCAR-3 ovarian): 25.4 µM
GI50 (SF-268 CNS): 15.9 µM
TGI (SF-268 CNS): 56.2 µM
GI50 (SF-295 CNS): 13.5 µM
TGI (SF-295 CNS): 30.8 µM
GI50 (SK-OV-3 ovarian): 24.8 µM
TGI (SK-OV-3 ovarian): 58.7 µM
GI50 (A549 NSCLC): 20.2 µM
TGI (A549 NSCLC): > 100 µM
GI50 (TK-10 renal): 23.3 µM
TGI (TK-10 renal): > 100 µM
GI50 (RPMI-8226 leukemia): 15.2 µM
TGI (RPMI-8226 leukemia): 29.1 µM
GI50 (MDA-MB-435 melanoma): 23.2 µM
TGI (MDA-MB-435 melanoma): 68 µM
GI50 (T-47D breast): 11.6 µM
TGI (T-47D breast): 29.5 µM
GI50 (HCT-15 colon): 16.9 µM
TGI (HCT-15 colon): 34.4 µM
GI50 (ACHN renal): 17.4 µM
TGI (ACHN renal): 45.1 µM
GI50 (NCI-H522 lung): 14.9 µM
TGI (NCI-H522 lung): 46.2 µM
GI50 (SK-MEL-5 melanoma): 13.6 µM
TGI (SK-MEL-5 melanoma): 28.1 µM
GI50 (NCI/ADR-RES ovarian): 23.5 µM
TGI (NCI/ADR-RES ovarian): 74.7 µM
GI50 (SR leukemia): 3.77 µM
TGI (SR leukemia): 14.1 µM
GI50 (NCI-H322M lung): 15.3 µM
TGI (NCI-H322M lung): 38.6 µM
GI50 (KM12 colon): 14.5 µM
TGI (KM12 colon): 31.3 µM
GI50 (NCI-H23 lung): 20.1 µM
TGI (NCI-H23 lung): 76 µM
GI50 (UACC-62 melanoma): 25.2 µM
TGI (UACC-62 melanoma): 75.1 µM
GI50 (SNB-75 CNS): 22.3 µM
TGI (SNB-75 CNS): 58.1 µM
GI50 (HOP-62 NSCLC): 13.6 µM
TGI (HOP-62 NSCLC): 33.9 µM
GI50 (MALME-3M melanoma): 17.1 µM
TGI (MALME-3M melanoma): 46.2 µM
GI50 (RXF 393 renal): 10.6 µM
TGI (RXF 393 renal): 27.7 µM
GI50 (U251 glioblastoma): 12.3 µM
TGI (U251 glioblastoma): 26.7 µM
GI50 (BT-549 breast): 13.6 µM
TGI (BT-549 breast): 30.7 µM
GI50 (MCF7 breast): 12.1 µM
TGI (MCF7 breast): 27.1 µM
GI50 (PC-3 prostate): 16 µM
TGI (PC-3 prostate): 34.6 µM
GI50 (A498 renal): 16.1 µM
TGI (A498 renal): 31.6 µM
GI50 (CAKI-1 renal): 25.1 µM
TGI (CAKI-1 renal): > 100 µM
GI50 (HS 578T breast): 13.4 µM
TGI (HS 578T breast): 30.7 µM
GI50 (SK-MEL-28 melanoma): 22.2 µM
TGI (SK-MEL-28 melanoma): 80 µM
GI50 (MDA-MB-468 breast): 13.7 µM
TGI (MDA-MB-468 breast): 34.5 µM
GI50 (OVCAR-4 ovarian): 11.4 µM
TGI (OVCAR-4 ovarian): 37.1 µM
GI50 (CCRF-CEM leukemia): 15.3 µM
TGI (CCRF-CEM leukemia): 29.7 µM
GI50 (HCT-116 colon): 16.8 µM
TGI (HCT-116 colon): 40.8 µM
GI50 (EKVX NSCLC): 21.7 µM
TGI (EKVX NSCLC): 68.4 µM
GI50 (SK-MEL-2 melanoma): 33.7 µM
TGI (SK-MEL-2 melanoma): 53.6 µM
GI50 (SW-620 colon): 15.4 µM
TGI (SW-620 colon): 63.2 µM
GI50 (MDA-MB-231 breast): 21.5 µM
TGI (MDA-MB-231 breast): 46.1 µM
GI50 (NCI-H460 NSCLC): 14.8 µM
TGI (NCI-H460 NSCLC): 29.1 µM
GI50 (UACC-257 melanoma): 16.2 µM
TGI (UACC-257 melanoma): 35.1 µM
GI50 ([…]-0 renal): 15 µM
TGI (786-0 renal): 37.1 µM
GI50 (DU-145 prostate): 15 µM
TGI (DU-145 prostate): 36.9 µM
GI50 (OVCAR-5 ovarian): 23.6 µM
TGI (OVCAR-5 ovarian): > 100 µM
GI50 (SF-539 CNS): 17.5 µM
TGI (SF-539 CNS): 45.1 µM
GI50 (K-562 leukemia): 7.87 µM
TGI (K-562 leukemia): 23.4 µM
GI50 (HL-60(TB) leukemia): 15 µM
TGI (HL-60(TB) leukemia): 28.4 µM
GI50 (MOLT-4 leukemia): 12.9 µM
TGI (MOLT-4 leukemia): 25.8 µM
GI50 (UO-31 renal): 16.9 µM
TGI (UO-31 renal): 44.5 µM
GI50 (IGROV1 ovarian): 17.1 µM
TGI (IGROV1 ovarian): 53.2 µM
GI50 (COLO 205 colon): 33.8 µM
TGI (COLO 205 colon): 97.8 µM
GI50 (NCI-H226 lung): 22 µM
TGI (NCI-H226 lung): 78.1 µM
GI50 (SN12C renal): 17.4 µM
TGI (SN12C renal): 45.8 µM
GI50 (HOP-92 NSCLC): 20 µM
TGI (HOP-92 NSCLC): 80.3 µM
GI50 (LOX IMVI melanoma): 26.2 µM
TGI (LOX IMVI melanoma): 60.7 µM
GI50 (SNB-19 CNS): 14.9 µM
TGI (SNB-19 CNS): 35.4 µM
